Experimental findings from ChEMBL document CHEMBL1828590 (J Med Chem, 2011) are described below.

Some results are limits rather than exact numbers.

A short description of series [1]: Half life in rat liver microsomes. Type of series: ADME, Microsome.
Series [2] relates to Mus musculus. The series is described as follows: Toxicity in nude BALB/c mouse xenografted with human HCT116 cells assessed as mouse survival at 200 mg/kg, po QD for 21 days measured on day 22. The class given is organism-based, HCT-116. Further details: dose 200 mg/kg, route oral. The following applies: in vivo, 504 h.
Series [3] deals with Mus musculus. The series is described as follows: Toxicity in athymic nu/nu Harlan mouse xenografted with human HCT116 cells assessed as body weight loss at 200 mg/kg, po QD for 21 days measured on day 8. The class given is organism-based, HCT-116. The following applies: in vivo, 504 h. Further details: dose 200 mg/kg, route oral.
Series [4] relates to Mus musculus. The series is described as follows: Toxicity in nude BALB/c mouse xenografted with human A2780 cells assessed as maximum body weight loss at 200 mg/kg, po QD for 21 days measured on day 13. The class given is organism-based. Further details: dose 200 mg/kg, route oral. As to conditions: in vivo, 504 h. A general note: A xenograft is tissue or cells of one species grown in another, often human tumour cells in immunodeficient mice.

The next series has as its system COLO 205. The series can be described thus: Antiproliferative activity against human COLO205 cells after 96 hrs by celltiter 96 assay. The class given is functional, cell-based. The following applies: COLO 205, 96 h.
A short description of series [5]: Kinetic solubility of the compound at pH 7 with […] DMSO. The class given is physicochemical. The following applies: buffer, read-out: Kinetic_solubility.
Series [6] concerns Mus musculus. The series can be described thus: Toxicity in athymic nu/nu Harlan mouse xenografted with human HCT116 cells assessed as body weight loss at 200 mg/kg, po QD for 21 days measured on day 19. Type of series: organism-based, HCT-116. Set-up: dose 200 mg/kg, route oral. The following applies: in vivo, 504 h.
Series [7] in a line: Half life in mouse liver microsomes. As to conditions: liver microsomes. The class given is ADME, Microsome. (In general: Liver microsomes are a subcellular fraction often used to study metabolism.)
Series [8] in a line: Oral bioavailability in nude BALB/c mouse at 50 mg/kg. The class given is ADME, organism-based. As to conditions: in vivo.
The nature of series [9]: Half life in human liver microsomes. Type of series: ADME, Microsome.
Series [10] has as its system Mus musculus. The series is described as follows: Toxicity in nude BALB/c mouse xenografted with human HCT116 cells assessed as body weight loss at 200 mg/kg, po QD for 21 days measured on day 19. Set-up: dose 200 mg/kg, route oral. The class given is organism-based, HCT-116. As to conditions: in vivo, 504 h.
Series [11] concerns Mus musculus. The series can be described thus: Toxicity in athymic nu/nu Harlan mouse xenografted with human HCT116 cells assessed as mouse survival at 200 mg/kg, po QD for 21 days measured on day 22. Type of series: organism-based, HCT-116. Further details: dose 200 mg/kg, route oral. The following applies: in vivo, 504 h.
Series [12] is described as follows: Half life in dog liver microsomes. Type of series: ADME, Canis lupus familiaris, Microsome.
Series [13] has as its system Mus musculus. The series is described as follows: Toxicity in athymic nu/nu Harlan mouse xenografted with human HCT116 cells assessed as body weight loss at 300 mg/kg, po QD for 21 days measured on day 19. Type of series: organism-based, HCT-116. Further details: dose 300 mg/kg, route oral. The following applies: in vivo, 504 h.
The subject of series [14] is HCT-116. The series can be described thus: Antitumor activity against human HCT116 cells xenografted in athymic nu/nu Harlan mouse assessed as tumor growth inhibition at 50 mg/kg, po qd for 21 days measured on day 22. The following applies: HCT-116, po, read-out: TGI.
The subject of series [15] is Mus musculus. The series can be described thus: Toxicity in athymic nu/nu Harlan mouse xenografted with human HCT116 cells assessed as mouse survival at 100 mg/kg, po QD for 7 days measured on day 22. Further details: dose 100 mg/kg, route oral. Type of series: organism-based, HCT-116. The following applies: in vivo, 168 h.
The nature of series [16]: Apparent permeability from basolateral to apical side of human Caco2 cells. The class given is ADME, cell-based. As to conditions: Caco-2. In general terms: Passage across Caco-2 layers is used to estimate intestinal permeability.
Series [17] deals with Mus musculus. The series can be described thus: Toxicity in athymic nu/nu Harlan mouse xenografted with human HCT116 cells assessed as body weight loss at 100 mg/kg, po QD for 7 days measured on day 5. Type of series: organism-based, HCT-116. Further details: dose 100 mg/kg, route oral. The following applies: in vivo, 168 h.
Series [18] is described as follows: Apparent permeability from apical to basolateral side of human Caco2 cells. The class given is ADME, cell-based. As to conditions: Caco-2.
The subject of series [19] is Mus musculus. The series can be described thus: Toxicity in athymic nu/nu Harlan mouse xenografted with human HCT116 cells assessed as mouse survival at 50 mg/kg, po QD for 7 days measured on day 22. As to conditions: in vivo, 168 h. Type of series: organism-based, HCT-116. Further details: dose 50 mg/kg, route oral.
Series [20] relates to HCT-116. The series can be described thus: Antitumor activity against human HCT116 cells xenografted in athymic nu/nu Harlan mouse assessed as tumor growth inhibition at 100 mg/kg, po qd measured on day 22. As to conditions: HCT-116, po, read-out: TGI.
The test system of series [21] is HCT-116. The series can be described thus: Antitumor activity against human HCT116 cells xenografted in athymic nu/nu Harlan mouse assessed as tumor growth inhibition at 200 mg/kg, po qd for 7 days measured on day 22. The following applies: read-out: TGI. Type of series: functional.
Series [22] has as its system Mus musculus. The series is described as follows: Toxicity in athymic nu/nu Harlan mouse xenografted with human HCT116 cells assessed as body weight loss at 50 mg/kg, po QD for 21 days measured on day 5. As to conditions: in vivo, 504 h.
The subject of series [23] is Mus musculus. The series is described as follows: Toxicity in athymic nu/nu Harlan mouse xenografted with human HCT116 cells assessed as body weight loss at 200 mg/kg, po QD for 7 days measured on day 5. As to conditions: in vivo, 168 h.

Take `O=C(CCCCCCC(=O)Nc1ccccc1)NO` [VORINOSTAT]: the half-life in [1], in series [7], in series [9] and in series [12] was above 60 min in each case. For the same compound, the Activity result is “Non-toxic” in the series with Mus musculus [2]; 8.9% in the series with Mus musculus [3]; 9.3% with Mus musculus [4]; 4.6% in the series on Mus musculus [6]; 1.9% in the series on Mus musculus [10]; “Non-toxic” in the series on Mus musculus [11]. Also, in the series on Mus musculus [13], the Activity is given as 5.5%. This compound yielded an IC50 in the series on COLO 205 of 2120 nM. The solubility kinetic in [5] was above 200 µM. Moreover, in [8], the bioavailability is 8.3%.

With `CCCCCCc1nc2cc(/C=C/C(=O)NO)ccc2n1CCN(C)C.Cl.Cl`, the inhibition in vivo at 50 mg/kg in the series with HCT-116 [14] was 17%. The Activity entry in the series on Mus musculus [15] is recorded as “Non-toxic”; in the series on Mus musculus [17], 4.9%; in the series on Mus musculus [19] it was “Non-toxic”; in the series with Mus musculus [22], 1.9%; in the series with Mus musculus [23], 18%. In addition, the Papp B→A in series [16] amounted to 26 ×10⁻⁶ cm/s. Besides, the half-life in [1] is 10 min; in series [7] it was 16 min; in [9], above 60 min; in series [12], 10 min. For the same compound, in series [18], the Papp A→B came out at 9.59 ×10⁻⁶ cm/s. In addition, in series [5], the solubility kinetic was above 200 µM. Moreover, the inhibition in vivo at 100 mg/kg in the series with HCT-116 [20] was 50%. Besides, the inhibition in vivo at 200 mg/kg with HCT-116 [21] turned out to be 53%.

Broadly, the half-life is how long it takes for the measured level to halve. Higher therefore signals slow loss. The IC50 is the concentration that gives 50% inhibition. A high value points to a need for much substance. As a reminder, the bioavailability is dose-corrected exposure relative to a reference, in per cent. A low value points to little systemic uptake. As usually defined, the Papp B→A is how fast a substance crosses the layer from the basolateral side. The Papp A→B is the apparent permeability from the apical to the basolateral side of a cell layer.
